Measured values as given in patent US20240116832A1, “INHIBITORS OF SOIL NITRIFICATION AND PROCESSES TO PREVENT SAME” (Tessenderlo Group NV, priority 2019, published 2024).

Tested on: soil nitrification: conversion of ammonium-N(NH4+) into nitrate-N(NO3−), Tujunga loamy sand
Conditions: for nitrification inhibition (slowing the conversion of ammonium-N into nitrate-N), in words: text on Experiments 1 and 2
Description: Two soils were used in this experiment, a Tujunga loamy sand (thermic Typic Xeropsamments) collected in Dinuba, California along with a Clarion fine loam (mesic Typic Hapludolls), collected in Boone, Iowa.
Each soil was collected by hand from the top 15 mm of the soil profile and allowed to air-dry. Both soils were hand screened to remove large clumps and rocks that may have interfered with the experiment. Soil samples were taken before the start of the experiment and analyzed to assess the initial nutrient content and pH of the soil.
The experiments were made up of numerous individual plastic containers that each represented one (1) replicate of each fertilizer treatment and soil. All experiments were arranged as a completely randomized design consisting of 12-20 fertilizer treatments, two soils, with six replicates.
To begin the experiment, 200 g of the dried and screened soil was added to a 709 mL sealable plastic container. Distilled water was added to each container to bring the moisture level up to what would be considered optimal field moisture. It was important to determine this for each soil separately to ensure neither soil was too dry or too moist. This volume ranged from 15-25 ml per container with the Clarion soil being the highest. Once the appropriate amount of water was applied to each container, they were thoroughly stirred to ensure uniform mixing and to eliminate any clumps.
After the soil containers were filled and moistened, the individual liquid fertilizer treatments were prepared in a 100 ml Erlenmeyer flask. All treatments were applied as liquids to ensure uniform mixing and accurate applications. For some of the treatments a 20%-N urea solution was used as the primary nitrogen source. […]
All fertilizer treatments were made to the soil surface in each container using a micropipette at a nitrogen rate of 134.7 kg ha^−1 calculated on the surface area of each container which equals 125.8 cm^2. […]
Soil samples were initially taken at one (1) day after treatment (DAT). […] The difference in mass is recorded and used in later calculations. […]

Structure (SMILES) | nitrification inhibition (slowing the conversion of ammonium-N into nitrate-N), in words | "nitrate levels" (nitrite+nitrate levels) in the soil (after 8 weeks)
N.N.O=S(=O)(O)O [ammonium sulfates, ammonium sulfate] | did not work | 
O=S([O-])O.[K+] [potassium bisulfite] | did not work | 
NC(N)=O [unprotected urea, Urea] |  | ≥ 300 ppm
